The text below walks through data of PubChem BioAssay (NCI).

Some test systems named below: DLD-1 colon; SW-620 colon; HOP-18 NSCLC; DU-145 prostate; RPMI-8226 leukemia; M19-MEL melanoma; HOP-62 NSCLC; BT-549 breast; NCI-H522 lung; CCRF-CEM leukemia; SK-OV-3 ovarian.
Holding throughout (assay): growth of human tumour cells (NCI), 48 h

Where “and” joins values, the source holds several entries; their conditions need not be identical. Equal entries are not always repeated.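 Test compounds were applied to cells in 96-well plates for 48 hours at 5 doses. GI50: concentration for 50% inhibition of growth. TGI is the concentration that stops growth completely.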 Where only a bound is given, the exact number is not on record here.

On to `COC(COC(N)=O)C1=C(N2CC2)C(=O)C(C)=C(N2CC2)C1=O` (centres undefined), for which the TGI in the test with DLD-1 colon is 1.03 µM; in the test with SW-620 colon, 0.703 µM; with HOP-18 NSCLC, 0.902 µM; in the test on DU-145 prostate, 0.0264 µM; in the test with RPMI-8226 leukemia, 3.16 µM; in the test on M19-MEL melanoma, 0.507 µM. For the same molecule, the TGI with HOP-62 NSCLC amounted to 0.227 µM; in the test with BT-549 breast it was 0.304 µM; with NCI-H522 lung, 0.156 µM; with CCRF-CEM leukemia, 24.6 µM; in the test on SK-OV-3 ovarian, 1.8 µM.

As to `CC(=O)Nc1ccc(/C=C/C(=O)c2sc(-c3cccnc3)nc2C)cc1`, the TGI in the test on DLD-1 colon, in the test on SW-620 colon, in the test with HOP-18 NSCLC, with RPMI-8226 leukemia, in the test on M19-MEL melanoma and with HOP-62 NSCLC was greater than 100 µM each time. Moreover, the TGI with NCI-H522 lung, with CCRF-CEM leukemia and in the test with SK-OV-3 ovarian was greater than 100 µM in each case.

For `C=C(C)[C@H]1CC[C@@]2(C)C(C1)[C@H](C)CC[C@@H]2O` (some centres undefined), the TGI in the test on DLD-1 colon, in the test with SW-620 colon, in the test on HOP-18 NSCLC, in the test with RPMI-8226 leukemia, with M19-MEL melanoma and in the test on HOP-62 NSCLC was greater than 100 µM throughout. For the same molecule, the TGI in the test with NCI-H522 lung, with CCRF-CEM leukemia and in the test on SK-OV-3 ovarian was greater than 100 µM throughout.

With `COc1cc2cc(OC(C)=O)c3cc4c(cc3c2c(OC)c1OC)OCO4`, the TGI in the test with DLD-1 colon, in the test with SW-620 colon, with HOP-18 NSCLC, in the test with M19-MEL melanoma, in the test with HOP-62 NSCLC and in the test on NCI-H522 lung was greater than 100 µM in each case. Further, the TGI in the test with CCRF-CEM leukemia and with SK-OV-3 ovarian was greater than 100 µM throughout.

In the case of `O=C1[C@H]2ON(c3ccccc3)C(c3ccc([N+](=O)[O-])cc3)[C@H]2C(=O)N1c1ccc(Cc2ccc(N3C(=O)[C@@H]4ON(c5ccccc5)C(c5ccc([N+](=O)[O-])cc5)[C@@H]4C3=O)cc2)cc1` (some centres undefined), the TGI with DLD-1 colon, in the test with SW-620 colon, in the test on HOP-18 NSCLC, with RPMI-8226 leukemia, in the test with M19-MEL melanoma and with HOP-62 NSCLC was greater than 100 µM each time. Moreover, the TGI in the test on NCI-H522 lung, in the test with CCRF-CEM leukemia and in the test with SK-OV-3 ovarian was greater than 100 µM each time.

Consider `COC(=O)[C@@H]1c2cc3c(c(O)c2[C@@H](OC2OC(C)C(OC)C(C)(OC)C2OC)C[C@]1(C)O)C(=O)c1c(O)cc2c(c1C3=O)O[C@H]1O[C@]2(C)[C@H](O)[C@@H](N(C)C)[C@@H]1O` (some centres undefined), for which the TGI in the test with DLD-1 colon was 0.258 µM and 0.436 µM; in the test on SW-620 colon, 0.292 µM and 1.37 µM; with DU-145 prostate, 0.455 µM; in the test on RPMI-8226 leukemia, 0.0557 µM; in the test on M19-MEL melanoma, 0.0156 µM and 0.0185 µM; with HOP-62 NSCLC, 0.328 µM and 0.0435 µM. Further, the TGI in the test with BT-549 breast is 0.0588 µM; in the test on NCI-H522 lung it was 0.0638 µM and 0.0131 µM; in the test with CCRF-CEM leukemia, 0.198 µM and 0.258 µM; with SK-OV-3 ovarian, 4.94 µM. For the same molecule, the GI50 in the test on HOP-18 NSCLC is 0.0404 µM.

Regarding `C=CSCCC(N)C(=O)O` (centres undefined), the TGI in the test on DLD-1 colon, in the test with SW-620 colon, in the test on HOP-18 NSCLC, in the test with M19-MEL melanoma, with HOP-62 NSCLC and in the test with NCI-H522 lung was greater than 100 µM each time. Besides, the TGI in the test with CCRF-CEM leukemia was greater than 100 µM.

Regarding `CC1=N/C(=C/c2ccc3c(c2)OCO3)C(=O)O1`, the TGI in the test with SW-620 colon, in the test on HOP-18 NSCLC, in the test with RPMI-8226 leukemia, in the test with M19-MEL melanoma, with NCI-H522 lung and in the test with CCRF-CEM leukemia was greater than 100 µM in each case. In the test on SK-OV-3 ovarian, this molecule returned a TGI greater than 100 µM.

Turning to `C=CCNC(=O)NCCCCC(NC(C)=O)C(=O)NCc1ccccc1` (centres undefined), the TGI with SW-620 colon, in the test with HOP-18 NSCLC, in the test on RPMI-8226 leukemia, in the test with M19-MEL melanoma, in the test with HOP-62 NSCLC and in the test on NCI-H522 lung was greater than 100 µM in each case. The TGI in the test on CCRF-CEM leukemia and in the test with SK-OV-3 ovarian was greater than 100 µM each time.

Consider `C=C(CCCCC)CN1CCCC1C(C)=O` (centres undefined), for which the TGI is greater than 100 µM in the test on DLD-1 colon; greater than 100 µM in the test on SW-620 colon; greater than 94.8 µM in the test with HOP-18 NSCLC; 40 µM in the test with RPMI-8226 leukemia; greater than 100 µM with M19-MEL melanoma; 64.1 µM in the test with HOP-62 NSCLC. In addition, the TGI was 34.7 µM in the test on NCI-H522 lung, 41.2 µM in the test on CCRF-CEM leukemia and greater than 100 µM with SK-OV-3 ovarian.

For the molecule `NCCSSCc1ccccc1CSSCCN`, the TGI was greater than 100 µM with DLD-1 colon; 45.8 µM in the test with SW-620 colon; greater than 100 µM in the test on HOP-18 NSCLC; greater than 100 µM in the test on RPMI-8226 leukemia; greater than 100 µM in the test with M19-MEL melanoma; greater than 100 µM with HOP-62 NSCLC. In addition, the figures for the TGI in the test with NCI-H522 lung and with SK-OV-3 ovarian were 27.8 µM and greater than 100 µM, respectively.

`COc1ccc(Cc2c3cc(O)c(=O)cc-3ccn2C)cc1`: the TGI in the test on DLD-1 colon is greater than 100 µM; in the test on SW-620 colon, greater than 100 µM; in the test on HOP-18 NSCLC, greater than 100 µM; in the test on RPMI-8226 leukemia, greater than 100 µM; in the test with M19-MEL melanoma, 75 µM; in the test with HOP-62 NSCLC, 82.4 µM. Further, the TGI was greater than 100 µM with NCI-H522 lung, greater than 76.3 µM in the test with CCRF-CEM leukemia and greater than 100 µM in the test with SK-OV-3 ovarian.

With `CC(C)(C)C1=CC(=C(P(=O)(O)O)P(=O)(O)O)C=C(C(C)(C)C)C1=O`, the TGI in the test on DLD-1 colon, with SW-620 colon, in the test with HOP-18 NSCLC, in the test with RPMI-8226 leukemia, with M19-MEL melanoma and in the test with HOP-62 NSCLC was greater than 50 µM each time. For the same molecule, the TGI in the test on NCI-H522 lung, in the test on CCRF-CEM leukemia and in the test with SK-OV-3 ovarian was greater than 50 µM in each case.
